Results published in paper PMC12267471, “Discovery of natural scaffolds as HER2 inhibitors for breast cancer: virtual screening, molecular dynamics, and biological characterization with selectivity profiling” (Scientific Reports, 2025).
Where two headings read alike, the source gives them in different places.

Experiments:
BT-474 cells [1] = assay: Annexin V-FITC/PI apoptosis detection, BT-474; format: cell-based, human; details: BT-474, 3.5 µM, 48 h
Method: To evaluate the induction of apoptosis, the translocation of phosphatidylserine to the outer cell membrane, as a hallmark of early apoptosis, was detected by the binding of annexin V, using the Annexin V-FITC Early Apoptosis Detection Kit (BD BioVision). Cells were seeded at a density of 5 × 10^5 cells per 100 mm culture plate and allowed to adhere overnight. […] At the end of the treatment period, cells were harvested by trypsinization, washed twice with ice-cold PBS, and resuspended in 500 µL of chilled 1X Annexin V Binding Buffer. To each sample, 5 µL of Annexin V-FITC conjugate and 5 µL of propidium iodide (PI, 50 µg/mL) were added. The cell suspensions were incubated for 5 minutes on ice in the dark to allow for staining.
Flow cytometric analysis was performed using excitation at 488 nm and emission at 530 nm for FITC detection (FL1 channel) and phycoerythrin emission settings for PI detection (FL2 channel). Data acquisition and analysis were facilitated by Cell Quest software (BD Biosciences), with dot plots divided into four quadrants to distinguish different cell populations: lower left (LL) for viable, non-apoptotic cells (negative for both annexin V and PI); lower right (LR) for early apoptotic cells (annexin V-positive, PI-negative); upper left (UL) for dead or necrotic cells (PI-positive, annexin V-negative); and upper right (UR) for late apoptotic cells (double-positive). All assays were conducted in triplicate to ensure reliability and reproducibility.

caspase 8 = assay: Real-time PCR caspase gene expression in BT-474 cells; format: cell-based, human; details: BT-474, liquiritin at its IC50
Method: (§1) RNA extraction was performed using Qiagen total RNA extraction kit from seeded BT-474 cells untreated and treated with liquiritin at a concentration equivalent to its respective IC50 value (determined via prior proliferation assays) according to the manufacturer’s manual. NanoDrop Lite Plus spectrophotometer™ (ThermoScientific, USA) was used for quantitation and purity evaluation of the extracted total RNA. cDNA synthesis and real-time quantitative PCR were performed in one reaction tube using iScript™ One-Step RT-PCR Kit with SYBR® Green (Bio-Rad, USA) using primers listed in Table S2 per the instruction’s manual. The relative gene expression of caspases 3, 8, and 9 was analyzed using the 2^−ΔΔCT method along with untreated BT-474 cells as control and Glyceraldehyde-3-phosphate dehydrogenase (GAPDH) as a housekeeping gene. The data were expressed as fold change in gene expression.

caspase 3 = assay: as above; format: cell-based, human; details: BT-474, liquiritin at its IC50
Method: as §1

caspase 9 = assay: as above; format: cell-based, human; details: BT-474, liquiritin at its IC50
Method: as §1

BT-474 cells [2] = assay: MTT proliferation assay, BT-474; format: cell-based, human; details: Homo sapiens
SKBR3 cells = assay: Transwell cell migration assay, SKBR3; format: cell-based, human; details: SKBR3, 6.4 µM, 24 h
Method: (§2) The in vitro transwell migration assay was conducted using an HTS-96 transwell permeable support chamber with 8 μm pores (Corning, USA) equipped with polyvinylpyrrolidone-free polycarbonate (PVPF) filters. […] The plate was incubated for 24 h at 37 °C. Then, the transwell inserts were incubated in the receiver plate with Calcein AM/cell dissociation solution at 37 °C in 5% CO2 incubator for 1 h, followed by measuring the fluorescence using a fluorescence plate reader with 485 nm excitation and 520 nm emission filter package. The relative fluorescence units were converted to cell count using a standard curve. The number of cells that moved to the lower side of the filter was used to assess migratory characteristics. The experiment in both cell lines was conducted in triplicate and data are presented as the mean ± SD.

BT-474 cells [3] = assay: Transwell cell migration assay, BT-474; format: cell-based; details: Homo sapiens; BT-474, 3.5 µM, 24 h; read-out: inhibition of migration relative to vehicle-treated cells
Method: as §2

IC50 (BT-474 cells [2]; BT-474, MTT, 48 h (Table S8), read-out: Cell growth inhibition IC50): 3.5 µM
IC50 (BT-474 cells [2]; BT-474, Table S9, read-out: IC50): 3.5 ± 0.1 µM
SMILES: O=C1C[C@@H](c2ccc(O[C@@H]3O[C@H](CO)[C@@H](O)[C@H](O)[C@H]3O)cc2)Oc2cc(O)ccc21 [Liquiritin]
early apoptosis (Annexin V+/PI−) cells (BT-474 cells [1]): 22.05%
late apoptosis (Annexin V+/PI+) cells (BT-474 cells [1]): 11.44%
necrosis (BT-474 cells [1]): 3.7%
caspase-8 expression, fold increase (caspase 8): 2.6 fold
caspase 3 expression, fold change vs untreated cells (caspase 3): approximately 10.8 fold
caspase 9 expression, fold change vs untreated cells (caspase 9): ~8.1 fold
reduction in migration (SKBR3 cells): approximately 23%
inhibition at 3.5 µM (BT-474 cells [3]): ~76%
